Experimental data published in paper PMC4548311 (Journal of Biomolecular Structure & Dynamics, 2014).

What was measured:
[1] = molecular target: R361A mutant NP (Influenza A virus, UniProt P15682, R361A)
[2] = system: influenza A virus; settings: cited from earlier work

Row | Structure (SMILES) | stabilization of R361A monomers [1] | emergence of resistant virus [2]
1 | COc1ccc2cc([C@H](C)C(=O)O)ccc2c1 [Naproxen, naproxen] | No stabilization | 
2 | CCOC(=O)C1=C[C@@H](OC(CC)CC)[C@H](NC(C)=O)[C@@H](N)C1 [tamiflu] |  | generated after four passages
